Test results: patent US9073916B2, “Prodrug forms of kinase inhibitors and their use in therapy” (AUCKLAND UNISERVICES LIMITED, priority 2009, dated 2015)
Values joined by “and” are separate entries in the source; they are usually repeats but may differ in a detail not shown here. Equal entries are not always repeated. Where two headings read alike, the source gives them in different places.

Assays:
[1] = target: erbB4 (Homo sapiens, UniProt Q15303); assay: Isolated enzyme inhibition (Invitrogen Z′-LYTE kinase assay); assay type: biochemical; conditions: 10 μM ATP, duplicate
erbB4, sequence (Q15303 26-1308): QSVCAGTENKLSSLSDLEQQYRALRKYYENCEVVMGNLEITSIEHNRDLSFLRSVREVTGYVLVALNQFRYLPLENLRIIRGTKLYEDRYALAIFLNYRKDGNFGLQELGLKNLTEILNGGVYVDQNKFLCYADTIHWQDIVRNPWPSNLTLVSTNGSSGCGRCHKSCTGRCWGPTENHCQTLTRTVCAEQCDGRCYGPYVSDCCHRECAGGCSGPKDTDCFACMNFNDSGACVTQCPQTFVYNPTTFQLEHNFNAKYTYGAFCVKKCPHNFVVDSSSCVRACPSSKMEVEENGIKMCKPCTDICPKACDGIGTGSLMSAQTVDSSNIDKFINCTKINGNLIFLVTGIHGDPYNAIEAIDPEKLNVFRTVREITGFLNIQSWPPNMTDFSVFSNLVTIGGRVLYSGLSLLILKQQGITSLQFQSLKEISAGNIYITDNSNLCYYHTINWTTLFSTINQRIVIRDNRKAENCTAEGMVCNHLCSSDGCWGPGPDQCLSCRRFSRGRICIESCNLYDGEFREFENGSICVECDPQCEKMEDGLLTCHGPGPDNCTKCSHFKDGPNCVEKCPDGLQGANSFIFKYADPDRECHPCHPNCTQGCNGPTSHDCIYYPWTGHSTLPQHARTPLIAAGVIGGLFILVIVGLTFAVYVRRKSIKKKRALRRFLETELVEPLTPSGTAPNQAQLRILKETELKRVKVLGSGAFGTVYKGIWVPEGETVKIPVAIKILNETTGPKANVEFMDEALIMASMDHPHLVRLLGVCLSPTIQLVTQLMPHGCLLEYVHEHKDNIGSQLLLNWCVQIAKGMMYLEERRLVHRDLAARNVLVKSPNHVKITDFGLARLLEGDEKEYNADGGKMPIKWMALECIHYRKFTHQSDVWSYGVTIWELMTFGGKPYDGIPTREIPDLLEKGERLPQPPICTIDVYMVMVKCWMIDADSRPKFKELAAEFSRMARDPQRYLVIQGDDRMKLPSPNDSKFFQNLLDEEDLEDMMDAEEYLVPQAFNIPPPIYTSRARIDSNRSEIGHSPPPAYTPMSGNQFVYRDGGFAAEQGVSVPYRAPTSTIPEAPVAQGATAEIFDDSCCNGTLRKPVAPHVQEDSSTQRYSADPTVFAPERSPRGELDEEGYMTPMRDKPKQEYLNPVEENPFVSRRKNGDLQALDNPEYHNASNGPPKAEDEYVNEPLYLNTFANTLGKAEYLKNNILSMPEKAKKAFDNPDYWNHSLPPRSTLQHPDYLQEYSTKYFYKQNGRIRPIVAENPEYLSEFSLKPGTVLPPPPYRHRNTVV
Experimental: (§1) The compounds of Table 1 were tested for their ability to inhibit erbB1, erbB1^T790M, erbB2 and erbB4 in an isolated enzyme assay. This assay utilises synthetic FRET-capable peptide substrates. Phosphorylation of these substrates protects them from cleavage by a development reagent, leaving their FRET-capabilities intact. […] As a further consideration, for compounds capable of irreversible inhibition of an enzyme, the IC50 reflects both reversible and irreversible binding to the enzyme.

[2] = target: T1, erbB2 (Homo sapiens, UniProt P04626); assay: as above; assay type: biochemical; conditions: 10 μM ATP, duplicate
T1 sequence (P04626 23-1255): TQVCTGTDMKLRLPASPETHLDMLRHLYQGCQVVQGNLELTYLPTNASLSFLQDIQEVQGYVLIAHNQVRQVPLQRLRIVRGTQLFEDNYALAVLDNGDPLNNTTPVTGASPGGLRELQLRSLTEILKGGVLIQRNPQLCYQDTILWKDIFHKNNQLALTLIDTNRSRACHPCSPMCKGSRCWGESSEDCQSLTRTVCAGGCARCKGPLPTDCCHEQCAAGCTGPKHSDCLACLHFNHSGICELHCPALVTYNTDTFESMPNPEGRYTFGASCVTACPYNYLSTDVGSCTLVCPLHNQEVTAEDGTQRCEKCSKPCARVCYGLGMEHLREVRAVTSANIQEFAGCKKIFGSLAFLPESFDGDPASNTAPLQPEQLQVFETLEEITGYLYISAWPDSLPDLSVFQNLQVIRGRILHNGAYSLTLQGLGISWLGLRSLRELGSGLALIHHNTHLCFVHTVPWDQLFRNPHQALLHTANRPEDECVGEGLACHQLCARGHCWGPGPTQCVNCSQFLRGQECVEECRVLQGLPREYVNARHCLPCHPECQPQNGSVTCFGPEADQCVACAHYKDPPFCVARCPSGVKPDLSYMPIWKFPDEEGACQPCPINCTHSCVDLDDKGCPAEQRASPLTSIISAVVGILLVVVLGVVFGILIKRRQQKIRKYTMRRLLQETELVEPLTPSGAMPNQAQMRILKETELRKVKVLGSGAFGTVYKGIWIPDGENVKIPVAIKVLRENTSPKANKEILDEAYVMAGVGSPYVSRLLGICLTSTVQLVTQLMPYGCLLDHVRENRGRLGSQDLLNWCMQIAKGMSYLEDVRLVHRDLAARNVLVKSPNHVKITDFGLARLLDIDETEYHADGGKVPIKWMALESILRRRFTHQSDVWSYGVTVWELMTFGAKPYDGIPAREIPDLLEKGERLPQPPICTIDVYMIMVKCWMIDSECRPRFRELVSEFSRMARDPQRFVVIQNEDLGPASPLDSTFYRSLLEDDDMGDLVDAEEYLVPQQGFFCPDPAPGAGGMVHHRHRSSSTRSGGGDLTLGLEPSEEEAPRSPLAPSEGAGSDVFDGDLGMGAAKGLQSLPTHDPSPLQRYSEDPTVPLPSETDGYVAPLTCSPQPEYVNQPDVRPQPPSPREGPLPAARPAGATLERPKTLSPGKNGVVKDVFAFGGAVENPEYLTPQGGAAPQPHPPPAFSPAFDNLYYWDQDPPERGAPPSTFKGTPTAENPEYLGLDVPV
Experimental: as §1

[3] = tested on: SKBR3 cells; assay: Cellular growth inhibition (sulforhodamine B); assay type: cell-based, Human; conditions: Table 3
Experimental: (§3) Human A431, BT474, SKBR3, SKOV3, SW620, H1975 and HT29 carcinoma cells in log phase exponential growth in alpha minimal essential media (αMEM) containing 5% fetal bovine serum (FBS), were harvested by trypsinisation (1× trypsin/EDTA, Gibco Brl), counted, and seeded into 96 well plates (Nunc) at cell densities ranging from 800-1500 cells/well. Half of the cell samples were seeded into plates that were pre-equilibrated and held in an anoxic environment (90% N2, 5% H2, 5% CO2, 37° Q Anaerobic chamber, Coy Laboratory Products). […] At the end of this period the anoxic plates were recovered from the anaerobic camber and held under normoxia in a standard CO2 incubator (37° C.) for 20 hours. All plates were washed free of compound and cells were allowed to proliferate for a further 4 days in αMEM containing 5% FBS+antibiotics. Cells were fixed in trichloroacteic acid (30 min), washed and stained with sulforhodamine B (SRB, 60 min) prior to washing in acidified water. SRB was solubilised and absorption read at 450 nm to calculate cell densities. Inhibition of proliferation was calculated relative to untreated control wells.

[4] = target: T2, erbB1 (Homo sapiens, UniProt P00533); assay: Inhibition of erbB1 autophosphorylation in EGF-stimulated intact A431 cells (Western blot)
T2 sequence (P00533 25-1210): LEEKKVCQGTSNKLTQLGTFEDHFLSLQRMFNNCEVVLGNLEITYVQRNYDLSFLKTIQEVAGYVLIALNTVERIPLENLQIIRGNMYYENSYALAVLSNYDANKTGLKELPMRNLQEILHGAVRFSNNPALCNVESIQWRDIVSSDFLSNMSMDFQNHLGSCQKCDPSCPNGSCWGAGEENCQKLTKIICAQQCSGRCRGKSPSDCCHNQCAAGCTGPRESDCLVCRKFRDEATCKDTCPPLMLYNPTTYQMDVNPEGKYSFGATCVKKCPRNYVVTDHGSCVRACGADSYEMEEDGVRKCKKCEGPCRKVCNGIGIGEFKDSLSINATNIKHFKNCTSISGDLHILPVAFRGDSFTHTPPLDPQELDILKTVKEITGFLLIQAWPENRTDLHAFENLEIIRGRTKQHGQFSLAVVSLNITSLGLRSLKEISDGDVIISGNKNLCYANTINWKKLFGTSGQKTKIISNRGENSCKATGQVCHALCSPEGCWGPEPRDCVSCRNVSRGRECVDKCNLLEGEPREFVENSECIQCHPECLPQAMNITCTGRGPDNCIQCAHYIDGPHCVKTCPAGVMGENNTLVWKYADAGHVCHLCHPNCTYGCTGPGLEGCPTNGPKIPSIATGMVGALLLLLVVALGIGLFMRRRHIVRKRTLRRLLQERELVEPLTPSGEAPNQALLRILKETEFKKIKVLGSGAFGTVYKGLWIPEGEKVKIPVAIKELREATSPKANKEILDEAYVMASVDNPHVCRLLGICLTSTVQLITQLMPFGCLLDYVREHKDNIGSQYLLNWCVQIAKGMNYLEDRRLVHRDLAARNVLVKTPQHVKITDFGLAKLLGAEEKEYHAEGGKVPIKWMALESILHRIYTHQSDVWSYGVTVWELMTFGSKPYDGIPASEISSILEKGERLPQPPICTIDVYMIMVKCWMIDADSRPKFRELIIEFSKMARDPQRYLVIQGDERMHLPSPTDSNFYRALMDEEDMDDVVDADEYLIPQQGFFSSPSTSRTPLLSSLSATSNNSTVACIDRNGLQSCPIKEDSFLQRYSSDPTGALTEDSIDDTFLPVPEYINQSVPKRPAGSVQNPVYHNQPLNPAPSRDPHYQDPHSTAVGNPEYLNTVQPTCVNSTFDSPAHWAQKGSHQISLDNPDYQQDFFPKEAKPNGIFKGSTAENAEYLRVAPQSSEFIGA

[5] = tested on: Erk1/2; conditions: EGF-stimulated A431 cells
[6] = tested on: SKOV3 xenografts; assay: In vivo efficacy in SKOV3 xenografts; parameters: species or system mice
Experimental: (§2) Specific pathogen-free homozygous female NIH-III nude mice (Charles River Laboratories, Wilmington, Mass.) were inoculated subcutaneously with a single cell suspension of SKOV3 cells (1×10^7 cells/100 μL; right flank). When SKOV3 tumour xenografts were established (typically 50-65 days) mice were randomized to treatment groups. All compounds were prepared in lactate buffer (pH4). Mice were dosed by intraperitoneal injection (0.01-0.03 ml/g) using the stated schedules and dose levels. Tumour size and body weights were measured at regular intervals. Tumour volume was calculated as π (length×width^2)/6. […] Differences in RTV^4 were tested for statistical difference by Mann Whitney U test using SigmaStat v3.5.
as §2, with “Compounds 42 and 161” for “All compounds”

[7] = tested on: A431 xenografts; assay: In vivo efficacy in A431 xenografts; conditions: A431 xenografts; for tumour growth inhibition (TGI): q4dx3 at MTD, IP in lactate buffer
Experimental: as §2, with “CD-1” for “NIH-III”, “A431” for “SKOV3”, “(5×10^6” for “(1×10^7”, “[…];” for “μL;”, “6-10” for “50-65”

[8] = in vivo; conditions: female, CD-1 nude, mouse, ip
[9] = tested on: A431 cells; assay: Cellular growth inhibition (sulforhodamine B)
Experimental: as §3
Human A431, H1975 and SKOV3 carcinoma cells in log phase exponential growth in alpha minimal essential media (αMEM) containing 5% fetal bovine serum (FBS), were harvested by trypsinisation (1× trypsin/EDTA, Gibco Brl), counted, and seeded into 96 well plates (Nunc) at cell densities ranging from 800-1500 cells/well. Half of the cell samples were seeded into plates that were pre-equilibrated and held in an anoxic environment (90% N2, 5% H2, 5% CO2, 37° C.; Anaerobic chamber, Coy Laboratory Products). […] At the end of this period the anoxic plates were recovered from the anaerobic camber and held under normoxia in a standard CO2 incubator (37° C.) for 20 hours. All plates were washed free of compound and cells were allowed to proliferate for a further 4 days in αMEM containing 5% FBS+antibiotics. Cells were fixed in trichloroacteic acid (30 min), washed and stained with sulforhodamine B (SRB, 60 min) prior to washing in acidified water. SRB was solubilised and absorption read at 450 nm to calculate cell densities. Inhibition of proliferation was calculated relative to untreated control wells.

[10] = tested on: SW620 cells; assay: Cellular growth inhibition (sulforhodamine B); assay type: cell-based, Human; conditions: Table 3
Experimental: as §3

[11] = in vivo; conditions: mouse, plasma, ip, 42 umol/kg
[12] = Plasma and A431 tumour pharmacokinetics of compounds 11 and 20; conditions: NIHIII, mouse, 75 umol/kg
Experimental: A small piece (˜100 mg) of tissue was placed in biopulveriser well (previously cooled in liquid nitrogen) and reduced to fine powder with a 2-3 strong blows to the stainless steel pestle. The frozen powder was collected in pre-weighed microcentrifuge tube (kept on dry ice). […] The microcentrifuge tubes were spun at 13,000 rpm for 10 min to precipitate the cell debris and proteins. […] The analytes were eluted using a gradient of 0.01% formic acid in acetonitrile (80%)-water (20%) mixture and 0.01% formic acid in water (100%) on Zorbax SB 018, rapid resolution HT 3.0×50 mm, 1.8 micron (Agilent) HPLC column with a flow rate of 0.6 ml/min.

[13] = target: T2, erbB1; assay: Cellular erbB1 inhibition: irreversibility wash-out assay in A431 cells
[14] = target: T2, erbB1; assay: Isolated enzyme inhibition (Invitrogen Z′-LYTE kinase assay); assay type: biochemical; conditions: 10 μM ATP, duplicate
[15] = target: erbB1^T790M (Homo sapiens, UniProt P00533, T790M); assay: as above; assay type: biochemical; conditions: 10 μM ATP, duplicate
erbB1^T790M, sequence (P00533 25-1210 T790M): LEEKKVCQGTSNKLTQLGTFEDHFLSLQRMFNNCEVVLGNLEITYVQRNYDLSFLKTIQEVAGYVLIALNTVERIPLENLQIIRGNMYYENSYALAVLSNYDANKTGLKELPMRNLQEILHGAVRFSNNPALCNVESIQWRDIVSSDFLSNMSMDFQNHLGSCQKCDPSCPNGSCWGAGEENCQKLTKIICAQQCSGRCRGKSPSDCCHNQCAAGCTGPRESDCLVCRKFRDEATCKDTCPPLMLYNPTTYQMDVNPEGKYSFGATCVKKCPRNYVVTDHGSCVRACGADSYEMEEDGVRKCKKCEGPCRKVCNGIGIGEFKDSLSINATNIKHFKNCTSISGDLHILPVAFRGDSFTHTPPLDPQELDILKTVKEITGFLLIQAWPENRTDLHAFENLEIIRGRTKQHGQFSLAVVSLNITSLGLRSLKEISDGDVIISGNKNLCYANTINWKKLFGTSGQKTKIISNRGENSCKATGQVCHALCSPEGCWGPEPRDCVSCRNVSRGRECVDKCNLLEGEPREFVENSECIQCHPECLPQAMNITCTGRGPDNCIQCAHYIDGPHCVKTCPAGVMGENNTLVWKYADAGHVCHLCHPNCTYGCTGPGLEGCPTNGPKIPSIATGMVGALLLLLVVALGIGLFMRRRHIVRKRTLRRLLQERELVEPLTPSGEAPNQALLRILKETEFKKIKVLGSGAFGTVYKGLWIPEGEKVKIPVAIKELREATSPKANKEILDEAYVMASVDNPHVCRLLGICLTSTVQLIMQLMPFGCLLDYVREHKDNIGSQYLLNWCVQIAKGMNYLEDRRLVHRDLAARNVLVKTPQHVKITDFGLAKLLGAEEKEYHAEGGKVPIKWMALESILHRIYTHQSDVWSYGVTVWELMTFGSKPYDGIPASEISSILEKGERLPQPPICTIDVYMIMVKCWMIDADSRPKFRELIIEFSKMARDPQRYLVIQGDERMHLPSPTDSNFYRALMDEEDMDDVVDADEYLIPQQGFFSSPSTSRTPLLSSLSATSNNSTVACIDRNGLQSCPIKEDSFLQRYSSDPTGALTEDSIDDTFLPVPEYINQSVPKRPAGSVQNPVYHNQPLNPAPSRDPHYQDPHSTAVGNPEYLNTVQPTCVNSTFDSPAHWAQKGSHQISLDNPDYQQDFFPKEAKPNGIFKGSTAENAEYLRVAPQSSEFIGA

[16] = Pulse radiolysis (E(1) and fragmentation rate); assay type: physicochemical; conditions: for E (1)/V (one-electron reduction potential): determined against methylviologen
[17] = Steady state radiolytic reduction by the CO2.− radical with HPLC-MS; assay type: physicochemical; conditions: for Effector release/Prodrug loss: 0.95 reducing equivalents; for Detection of MNA (methyl nitroaromatic) / release of effector following 1-electron reduction: HPLC-MS; for % Loss of prodrug / % Release of effector: HPLC-MS at 0.95 reducing equivalents; for release of effector following 1-electron reduction: steady state radiolysis
[18] = target: T2, erbB1; assay: Cellular erbB1 inhibition under oxic and hypoxic conditions in A431 cells; assay type: cell-based; conditions: 1 μM, 4 hour exposure oxic or hypoxic, washed, EGF stimulated
Experimental: Human A431 epidermoid carcinoma cells were seeded at 400,000 cells/well in a 6 well plate in alpha minimal essential media (αMEM) containing 10% fetal bovine serum, 10 mM D-Glucose and 0.2 mM 2′-deoxycytidine. A431 cells were allowed to attach for 90 minutes under oxic or anoxic conditions, then exposed to test compounds at a concentration of 1 uM for a further 4 hours under oxic or anoxic conditions. The cells were then washed free of test compounds three times using serum free media and then returned to the incubator under oxic conditions overnight. The cells were then stimulated with 100 ng/mL EGF for 15 minutes before the medium was aspirated and the cells were washed with ice-cold PBS.

[19] = tested on: SKOV3 cells; assay: Cellular growth inhibition (sulforhodamine B); assay type: cell-based, Human; conditions: Table 9; for IC50: Homo sapiens, SK-OV-3
[20] = tested on: H1975 xenografts; assay: In vivo efficacy in H1975 xenografts; parameters: species or system mice; conditions: H1975 xenografts, equitoxic dose 133 (42) and 42.2 (161) μmol/kg/dose, q3dx4, IP
Experimental: as §2, with “H1975” for “SKOV3”, “(5×10^6” for “(1×10^7”, “8-12” for “50-65”, “For growth delay experiments mice were randomized to treatment and tumor volume [π(length×width^2)/6]” for “Tumour size”, “weight” for “weights”, “daily following treatment.” for “at regular intervals. Tumour volume was calculated as π (length×width^2)/6.”

[21] = tested on: H1975 cells; assay: Cellular growth inhibition (sulforhodamine B); assay type: cell-based, Human; conditions: Table 9; for IC50: Homo sapiens, NCI-H1975
[22] = target: T1, erbB2; assay: Inhibition of basal phospho-erbB2 in SKOV3 cells (Western blot); assay type: cell-based; parameters: endogenous in cells; host or cells: SKOV3 human ovarian carcinoma cells; conditions: SKOV3 cells; read-out: cellular erbB2 IC50
Text: Values are plotted using SigmaPlot 10.

[23] = Plasma and A431 tumour pharmacokinetics of compounds 42 and 161
[24] = Homo sapiens, SK-BR-3, 24 hour exposure entirely oxic, read-out: Cellular Growth Inhibition IC50 SKBR3 Oxic
[25] = Homo sapiens, SK-BR-3, first 4 hours anoxic, read-out: Cellular Growth Inhibition IC50 SKBR3 Anoxic
[26] = Homo sapiens, A-431, 24 h, read-out: Cellular Growth Inhibition IC50 A431 Oxic
[27] = Homo sapiens, A-431, read-out: Cellular Growth Inhibition IC50 A431 Anoxic
[28] = Homo sapiens, SW-620, 24 hour exposure entirely oxic, read-out: Cellular Growth Inhibition IC50 SW620 Oxic
[29] = Homo sapiens, SW-620, first 4 hours anoxic, read-out: Cellular Growth Inhibition IC50 SW620 Anoxic

Compound | IC50 [1] [nM] | IC50 [2] | IC50 [3, 24] [nM] | IC50 [3, 25] [nM] | SKBR3 HCR [3] [fold] | IC50 [9, 26] [nM] | IC50 [9, 27] [nM] | IC50 [10, 28] [nM] | IC50 [10, 29] [nM] | SW620 HCR [10] [fold] | IC50 [14] [nM] | SKBR3 Deact. [3] [fold] | IC50 [4] [nM] | IC50 [15] [nM] | E (1)/V (one-electron reduction potential) [16] [V] | Effector release/Prodrug loss [17] | Detection of MNA (methyl nitroaromatic) [17] | % Loss of prodrug [17] [%] | % Release of effector [17] [%] | release of effector following 1-electron reduction [17] | also measured
CN(C)C/C=C/C(=O)Nc1ccc2ncnc(Nc3cccc(Br)c3)c2c1 [Compound 11, (2E)-N-[4-(3-bromoanilino)-6-quinazolinyl]-4-(dimethylamino)-2-butenamide, reference compound] | 2.7 | 8 nM and 7.7 nM | 81 | 141 | 0.6 | 40 | 40 | 3430 | 2890 | 1.2 | – | – | – | – | – | – | – | – | – | – | inhibition of cellular HER1 phosphorylation ([4]; EGF-stimulated A431 cells): potent inhibitor; inhibition of cellular Erk1/2 phosphorylation [5]: potent inhibitor; deaths ([6]; q3dx6, 133 (20) and 56 (11) umol/kg/dose): 1/7; deaths ([7]; q4dx6, 63% of single dose MTD): 2/12; MTD [8]: 100 µmol/kg; AUC(0-t) [11]: 12 µM·h; half-life ([12]; A431 tumour, intraperitoneal): 9 h; AUC ([12]; plasma, ip): 18 µM·h; erbB1 autophosphorylation, cells not washed free of drug [13]: completely inhibited
Cn1cc([N+](=O)[O-])nc1C[N+](C)(C)C/C=C/C(=O)Nc1ccc2ncnc(Nc3cccc(Br)c3)c2c1 [Compound 21, (2E)-4-{[4-(3-bromoanilino)-6-quinazolinyl]amino}-N,N-dimethyl-N-[(1-methyl-4-nitro-1H-imidazol-2-yl)methyl]-4-oxo-2-buten-1-ammonium bromide] | 76 | 128 nM | 26900 | 30000 | 0.9 | 11000 | 13700 | 423000 | 365000 | 1.2 | 0.53 | 332 | 1190 | 531 | −0.468 | 0.30 | No | 33 | 10 | not observed | Deact. (fold reduction in cellular erbB1 inhibition relative to the parent kinase inhibitor) ([4]; Table 2, A431 cells): 130 fold; hypoxia-selective inhibition of p-erbB1 [18]: no apparent hypoxia-selective inhibition; tumour growth inhibition (TGI) [7]: 10%; A431 Deact. (fold reduction in oxic growth inhibition relative to parent kinase inhibitor) ([9]; Table 3): 277 fold; A431 HCR (Hypoxic Cytotoxicity Ratio) ([9]; Table 3): 1.3 fold; SW620 Deact. [10]: 123 fold
Cn1c(C[N+](C)(C)C/C=C/C(=O)Nc2ccc3ncnc(Nc4cccc(Br)c4)c3c2)ccc1[N+](=O)[O-].[Br-] [Compound 19, (2E)-4-{[4-(3-bromoanilino)-6-quinazolinyl]amino}-N,N-dimethyl-N-[(1-methyl-5-nitro-1H-pyrrol-2-yl)methyl]-4-oxo-2-buten-1-ammonium bromide] | 61 | 113 nM | – | – | – | – | – | – | – | 5.6 | 0.4 | 78 | – | 451 | −0.493 | 0.73 | No | 63 | 46 | released effector (compound 11) detected | IC50 ([3]; 24 hour exposure entirely oxic, read-out: Cellular Growth Inhibition IC50 SKBR3 Oxic): 6330 nM; IC50 ([3]; first 4 hours anoxic, read-out: Cellular Growth Inhibition IC50 SKBR3 Anoxic): 483 nM; IC50 ([4]; read-out: Cellular Enzyme Inhibition IC50 erbB1, Table 2, intact A431 cells, EGF-stimulated, average of two determinations): 962 nM; kfrag. (fragmentation rate constant upon 1-electron reduction) ([16]; benzyl-type radical formation): 90 ± 10 s⁻¹; tumour growth inhibition (TGI) [7]: 120%; IC50 ([9]; read-out: Cellular Growth Inhibition IC50 A431 Anoxic, Table 3, first 4 hours of 24 hour exposure anoxic): 201 nM; IC50 ([9]; read-out: Cellular Growth Inhibition IC50 A431 Oxic, Table 3, 24 hour exposure entirely oxic): 2640 nM; SW620 Deact. [10]: 46 fold; IC50 ([10]; 24 hour exposure entirely oxic, read-out: Cellular Growth Inhibition IC50 SW620 Oxic): 156000 nM; IC50 ([10]; first 4 hours anoxic, read-out: Cellular Growth Inhibition IC50 SW620 Anoxic): 28000 nM
CN(C)C/C=C/C(=O)Nc1cc2c(Nc3ccc(F)c(Br)c3)ncnc2cn1 [Compound 161, (2E)-N-[4-(3-bromo-4-fluoroanilino)pyrido[3,4-d]pyrimidin-6-yl]-4-(dimethylamino)-2-butenamide] | – | – | – | – | – | 30 | – | – | – | – | – | – | 5 | – | – | – | – | – | – | – | IC50 ([19]; 24 hour exposure oxic, read-out: Cellular Growth Inhibition IC50 SKOV3 Oxic): 840 nM; IC50 ([19]; first 4 hours anoxic, read-out: Cellular Growth Inhibition IC50 SKOV3 Anoxic): 1310 nM; SKOV3 HCR [19]: 0.8 fold; tumour growth inhibition (TGI) [20]: 100%; IC50 ([21]; 24 hour exposure oxic, read-out: Cellular Growth Inhibition IC50 H1975 Oxic): 1260 nM; IC50 ([21]; first 4 hours anoxic, read-out: Cellular Growth Inhibition IC50 H1975 Anoxic): 1400 nM; H1975 HCR [21]: 0.9 fold; deaths ([6]; q3dx9, 100 (42) and 31.6 (161) μmol/kg/dose): 1/7; IC50 ([9]; Homo sapiens, A-431, 4 h, read-out: Cellular Growth Inhibition IC50 A431 Anoxic): 28 nM; A431 HCR ([9]; Table 9): 1.6 fold; IC50 [22]: 6 nM; AUC ([23]; female, NIH-III, mouse, plasma, ip, 31.6 umol/kg): 8 µM·h; tumour AUC0-inf ([23]; inhibitor 161 dosed directly at 31.6 umol/kg ip, A431 tumour): 49 µmol·h/kg; erbB1 autophosphorylation, cells not washed free of drug ([13]; 1 μM, 1 hour exposure, then EGF stimulation): completely inhibited
